Common to all, as to type: cell-based
Test [1] relates to E. coli ATCC25922. Briefly: Antibacterial activity in combination with minocycline (growth inhibition). The conditions noted are these: Escherichia coli, minocycline 0.25 μg/mL, OD625 23 h minus 1 h, read-out: residual growth of E. coli ATCC25922 (% of uninhibited control) with minocycline; for activity at 50 µM: ATCC25922, compound at 50 μM; for activity at 25 µM: ATCC25922, compound at 25 μM. The gist of the method: (§1)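 Test compound combined with fixed subinhibitory partner antibiotic: linezolid 128 μg/mL for either strain, minocycline 0.25 μg/mL (E. coli) or 8 μg/mL (P. aeruginosa), in caMHB shaken at 37 °C. Residual growth as % of inhibitor-free control, from OD625 at 23 h minus 1 h.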

In test [2] the test system is P. aeruginosa PAO1. The test is described as above. The conditions noted are these: Pseudomonas aeruginosa, PAO1, compound at 50 μM; minocycline 8 μg/mL; OD625 23 h minus 1 h; read-out: residual growth of P. aeruginosa PAO1 (% of uninhibited control) with minocycline. In short, it runs like this:
as §1

Test [3] has as its system E. coli ATCC25922. Briefly: Antibacterial activity in combination with linezolid (growth inhibition). The conditions noted are these: Escherichia coli, ATCC25922, compound at 50 μM; linezolid 128 μg/mL; OD625 23 h minus 1 h; read-out: residual growth of E. coli ATCC25922 (% of uninhibited control) with linezolid. Here is the method:
Antibacterial activity in combination with minocycline or with linezolid
Inhibition of growth was measured with E. coli ATCC25922 and P. aeruginosa PAO1 in a 96-well plate format. Cation-adjusted Müller-Hinton broth (caMHB) was inoculated with an overnight culture and incubated at 37° C. on a shaker until OD625 reached 0.6 to 0.7. Density was adjusted to OD600=0.5 by addition of caMHB. 35 μL of the suspension were diluted to 35 mL with caMHB and supplemented with minocycline at the subinhibitory doses of 0.25 μg/mL for E. coli and 8 μg/mL for P. aeruginosa or with linezolid at the subinhibitory dose of 128 μg/mL for E. coli and P. aeruginosa. Each well contained 1 μL of test compound in 100 μL caMHB with minocycline or with linezolid.
Plates were incubated at 37° C. on a plate shaker. OD625 was measured at 1 h, 6 h, and at 23 h.
The difference between OD at 23 h and at 1 h was taken as measure for cell density and compared to controls without inhibitor (i.e. uninhibited control). Results were expressed as residual growth (% of uninhibited control). Enhancement of minocycline or linezolid activity caused reduced residual growth.

This passage reports activity results from US10464896B2, “Efflux-pump inhibitors and therapeutic uses thereof” (Basilea Pharmaceutica International AG, priority 2015, dated 2019).

For the compound `COc1cc(C#N)ccc1COc1cccc(CNCC2CNC2)c1` [Example 26], the activity at 50 µM in test [1] and in test [2] was no more than 50% in each case.

On to `Clc1ccc(COc2cccc(CCNCC3CNC3)c2)cc1` [Example 28], for which, in test [1], the activity at 25 µM is no more than 10%. For the same compound, the activity at 50 µM in test [2] was no more than 50%.

Regarding `Brc1ncccc1COc1cccc(CNCC2CNC2)c1` [Example 48], the activity at 50 µM in test [3] is no more than 50%.

For `CC(C)(c1ccccc1)c1ccc(OCCNCC2CNC2)cc1` [Example 50], the activity at 50 µM in test [1] and in test [2] was no more than 50% each time.

Regarding `CC(C)(C)c1ccc(COc2ccc(CNCC3CCNCC3)cc2)cc1` [Example 57], the activity at 25 µM in test [1] is no more than 10%. Besides, the activity at 50 µM in test [2] was no more than 50%.

Turning to `Clc1ccc(-c2cccc(CNCC3CCNC3)c2)c(Br)c1` (stereo not drawn) [Example 74], the activity at 25 µM in test [1] was no more than 10%. Moreover, the activity at 50 µM in test [2] is no more than 50%.

For the compound `N#Cc1ccc(COc2ccc(CNCC3CNC3)cc2)cc1` [Example 76], the activity at 50 µM in test [3] is no more than 50%.

As for `CS(=O)(=O)c1ccc(COc2ccc(CNCC3CNC3)cc2)c(Cl)c1` [Example 78], the activity at 50 µM in test [3] is no more than 50%.

Turning to `Clc1ccc(Oc2ccc(CNCC3CCNC3)cc2)c(Br)c1` (stereo not drawn) [Example 82], in test [1], the activity at 25 µM was no more than 10%. The activity at 50 µM in test [2] was no more than 50%.

`COC(=O)c1ccc(COc2ccc(CNCC3CNC3)cc2)c(Br)c1` [Example 87]: the activity at 50 µM in test [1] and in test [2] was no more than 50% each time.

For `Clc1ccc(Oc2ccccc2CNCC2CNC2)c(Br)c1` [Example 89], the activity at 50 µM in test [1] and in test [2] was no more than 50% throughout.

`CS(=O)(=O)c1ccc(COc2cccc(CNCC3CNC3)c2)c(Cl)c1` [Example 102]: the activity at 50 µM in test [2] was no more than 50%.

Take `O=C(O)c1cc(CNCC2CNC2)cc(OCc2ccc(Cl)cc2Br)c1` [Example 110]: the activity at 50 µM in test [3] is no more than 50%.

As to `COCc1cc(CNCC2CNC2)cc(OCc2ccc(Cl)cc2Br)c1` [Example 124], the activity at 25 µM in test [1] is no more than 10%. Besides, the activity at 50 µM in test [2] was no more than 50%.

`FC(F)(F)c1cc(Cl)ccc1COc1cccc(CNCC2CNC2)c1` [Example 131]: the activity at 25 µM in test [1] is no more than 10%. Besides, in test [2], the activity at 50 µM is no more than 50%.

On to `O=C(CNCC1CCNC1)c1cccc(OCc2ccc(Cl)cc2Br)c1` (stereo not drawn) [Example 143], for which the activity at 50 µM in test [3] was no more than 50%.

As for `O=C(Nc1ccc(CNCC2CCNC2)cc1Cl)c1ccc(C(F)(F)F)cc1C(F)(F)F` (stereo not drawn) [Example 160], the activity at 50 µM in test [3] was no more than 50%.

On to `Clc1ccc(NCc2cccc(CNCC3CNC3)c2)c(Br)c1` [Example 170], for which the activity at 25 µM in test [1] was no more than 10%. Besides, in test [2], the activity at 50 µM was no more than 50%.

For the compound `Clc1ccc(COCc2cccc(CNCC3CNC3)c2)c(Br)c1` [Example 173, N-(azetidin-3-ylmethyl)-1-[3-[(2-bromo-4-chloro-phenyl)methoxymethyl]phenyl]methanamine], in test [1], the activity at 25 µM is no more than 10%. Moreover, the activity at 50 µM in test [2] is no more than 50%.

As for `Clc1ccc(COc2cccc(CNCC3CNC3)c2)c(Cl)c1` [Example 177], in test [1], the activity at 25 µM is no more than 10%. Further, the activity at 50 µM in test [2] is no more than 50%.

For the compound `Ic1ccc(COc2cccc(CNCC3CNC3)c2)cc1` [Example 206], the activity at 50 µM in test [2] was no more than 50%.

Regarding `O=C(O)c1ccc(COc2cc(CNCC3CNC3)cc(OCc3ccc(Cl)cc3Br)c2)cc1` [Example 208], the activity at 50 µM in test [2] is no more than 50%.

Turning to `Ic1cccc(COc2cccc(CNCC3CNC3)c2)c1` [Example 219], the activity at 25 µM in test [1] is no more than 10%. The activity at 50 µM in test [2] is no more than 50%.

Regarding `Brc1ccccc1COc1cccc(CNCC2CCNC2)c1` (stereo not drawn) [Example 220], the activity at 50 µM in test [2] was no more than 50%.

Consider `Ic1cccc(COc2cccc(CNCC3CCNC3)c2)c1` (stereo not drawn) [Example 221], for which the activity at 25 µM in test [1] is no more than 10%. Moreover, the activity at 50 µM in test [2] is no more than 50%.

As to `CC(C)(C)c1ccc(COc2cccc(CNCC3CNC3)c2)cc1` [Example 222], the activity at 25 µM in test [1] is no more than 10%. Further, the activity at 50 µM in test [2] was no more than 50%.

As for `CC(C)(C)c1ccc(COc2cccc(CNC3CCNCC3)c2)cc1` [Example 223], the activity at 25 µM in test [1] was no more than 10%. Besides, the activity at 50 µM in test [2] is no more than 50%.

For the compound `C=CCOc1cc(/C=C/c2cccc(OC)c2)cc(CNCC2CNC2)c1` [Example 276], the activity at 25 µM in test [1] is no more than 10%. In addition, in test [2], the activity at 50 µM is no more than 50%.

In the case of `CC(C)(C)c1ccc(COc2cc(CNCC3CNC3)cc(OCCN3CCOCC3)c2)cc1` [Example 277], the activity at 25 µM in test [1] was no more than 10%. For the same compound, in test [2], the activity at 50 µM was no more than 50%.

As for `C=CCOc1cc(/C=C/c2ccccc2OC)cc(CNCC2CNC2)c1` [Example 285], the activity at 25 µM in test [1] was no more than 10%. Further, the activity at 50 µM in test [2] was no more than 50%.

As to `C[N+]1(C)CC(OCc2cc(CNCC3CNC3)cc(OCc3ccc(Cl)cc3Br)c2)CC1C(=O)O` (stereo not drawn) [Example 288], the activity at 50 µM in test [1] and in test [2] was no more than 50% throughout.

Turning to `N#Cc1ccc(/C=C/c2cccc(CNCC3CCNC3)c2)c(C(F)(F)F)c1` (stereo not drawn) [Example 314], the activity at 25 µM in test [1] was no more than 10%. Besides, the activity at 50 µM in test [2] is no more than 50%.

For `C=CCOc1cc(/C=C/c2cnccc2C#N)cc(CNCC2CCNC2)c1` (stereo not drawn) [Example 316], in test [1], the activity at 25 µM was no more than 10%. Besides, the activity at 50 µM in test [2] is no more than 50%.

On to `C=CCOc1cc(/C=C/c2cccs2)cc(CNCC2CCNC2)c1` (stereo not drawn) [Example 319], for which the activity at 25 µM in test [1] was no more than 10%. The activity at 50 µM in test [2] was no more than 50%.

As to `C=CCOc1cc(/C=C/c2ccsc2)cc(CNCC2CCNC2)c1` (stereo not drawn) [Example 320], the activity at 25 µM in test [1] is no more than 10%. Further, the activity at 50 µM in test [2] is no more than 50%.

Turning to `C=CCOc1cc(/C=C/c2ccc(OC)cc2OC)cc(CNCC2CNC2)c1` [Example 323], the activity at 25 µM in test [1] was no more than 10%. In addition, in test [2], the activity at 50 µM is no more than 50%.

Turning to `CC(C)COc1cc(/C=C/c2cccc(C(N)=O)c2)cc(CNCC2CCNC2)c1` (stereo not drawn) [Example 331], the activity at 25 µM in test [1] was no more than 10%. Further, in test [2], the activity at 50 µM was no more than 50%.

As to `C=CCOc1cc(CNCC2CCNC2)cc(CNC(=O)c2ccc(Cl)cc2Br)c1` (stereo not drawn) [Example 349], in test [2], the activity at 50 µM is no more than 50%.

Regarding `C=CCOc1cc(/C=C/c2nc(C(C)C)cs2)cc(CNCC2CCNC2)c1` (stereo not drawn) [Example 353], the activity at 25 µM in test [1] was no more than 10%. In addition, the activity at 50 µM in test [2] is no more than 50%.

In the case of `C=CCOc1cc(/C=C/c2ccc(Cl)cc2Br)cc(CNC(=O)[C@H]2CCNC2)c1` [Example 366], the activity at 25 µM in test [1] was no more than 10%. Moreover, in test [2], the activity at 50 µM was no more than 50%.

Consider `C=CCOc1cc(CNCC2CNC2)cc(OCc2cc(C)on2)c1` [Example 420], for which the activity at 50 µM in test [2] was no more than 50%.

For the compound `C=CCOc1cc(CNCC2CCNC2)cc(OCCc2ccncc2)c1` (stereo not drawn) [Example 424], the activity at 50 µM in test [2] was no more than 50%.

Regarding `c1cncc(COc2cc(CNCC3CNC3)cc(OCCc3ccncc3)c2)c1` [Example 425], the activity at 50 µM in test [2] is no more than 50%.

As for `C=CCOc1cc(CNCC2CNC2)cc(OCc2cncc(C(N)=O)c2)c1` [Example 437], in test [2], the activity at 50 µM was no more than 50%.

Regarding `C(=C\c1cc(CNCC2CCNC2)cc(OCCN2CCOCC2)c1)/c1cccnc1` (stereo not drawn) [Example 440], in test [2], the activity at 50 µM was no more than 50%.

Take `C=CCOc1cc(/C=C/c2ccc(Cl)cc2Br)cc(C(=O)NCC(=O)NCC2CNC2)c1` [Example 445]: the activity at 25 µM in test [1] was no more than 10%. For the same compound, in test [2], the activity at 50 µM is no more than 50%.

As for `C=CCOc1cc(/C=C/c2cncc(C(N)=O)c2)cc(CNCC2CCNC2)c1` (stereo not drawn) [Example 458], in test [2], the activity at 50 µM was no more than 50%.

On to `N#Cc1cncc(/C=C/c2cc(CNCC3CCNC3)cc(OCc3ccccn3)c2)c1` (stereo not drawn) [Example 474], for which, in test [2], the activity at 50 µM was no more than 50%.

As to `C=CCOc1cc(/C=C/c2ccc(N)cc2)nc(CNCC2CCNC2)c1` (stereo not drawn) [Example 475], the activity at 50 µM in test [1] and in test [2] was no more than 50% in each case.

Consider `CC(C)COc1cc(CNCC2CCNC2)cc(CNC(=O)c2cccc(C(N)=O)c2)c1` (stereo not drawn) [Example 477, N1-[[3-isobutoxy-5-[(pyrrolidin-3-ylmethylamino)methyl]phenyl]methyl]benzene-1,3-dicarboxamide], for which the activity at 50 µM in test [2] was no more than 50%.

As to `N#Cc1cncc(/C=C/c2cc(O)cc(CNCC3CCNC3)c2)c1` (stereo not drawn) [Example 480, 5-[(E)-2-[3-hydroxy-5-[(pyrrolidin-3-ylmethylamino)methyl]phenyl]vinyl]pyridine-3-carbonitrile], the activity at 50 µM in test [2] is no more than 50%.

On to `N#Cc1cncc(/C=C/c2cc(CNCC3CCNC3)cc(OCCc3ccncc3)c2)c1` (stereo not drawn) [Example 496], for which the activity at 50 µM in test [2] was no more than 50%.

With `O=C(NCc1cc(CNCC2CNC2)cc(OCCc2ccncc2)c1)c1cccnc1` [Example 510], the activity at 50 µM in test [2] is no more than 50%.
